Key:
Assay type in all cases: cell-based, mice
[1] = tested on: Aquaporin adipose (AQPap) messenger; assay: Relative expression of AQPap messenger by RT-Q-PCR in differentiated 3T3-L1 cells; conditions: for RE*AQP7 / AQP7/Actin % Control: 6 h; for RE*AQP7: n=2; for AQP7/Actin % Control: differentiated control = 100; for mRNA stimulation: summary
Experimental: The test was carried out on differentiated 3T3-L1 cells obtained as described in Example 1.
The differentiated cells were placed beforehand in test medium for 24 hours and were then treated with the test products or the references. After incubating for 6 h at 37° C. and 5% CO2, the culture supernatants were removed, the cells were rinsed with a PBS solution and the cell layers were placed in Tri-Reagent (Sigma T9424) and then immediately frozen at −80° C.
The expression of the markers selected was evaluated by RT-Q-PCR with regard to the messenger RNAs extracted from the cells corresponding to each treatment.
The marker β-actin (M12481) was used as reference marker.
The operational stages are as follows: • Extraction of the total RNAs using Tri-Reagent according to the protocol recommended by the supplier. Then further extraction with chloroform and precipitation with isopropanol. • Removal of the traces of potentially contaminating DNA by treatment with the DNA-free system (Ambion). After monitoring the quality of the RNAs obtained, the three samples corresponding to each treatment were pooled. • Carrying out the reverse transcription reaction on the mRNA in the presence of the oligo(dT) primer and of the Superscript II (Gibco) enzyme. • Quantification by fluorescence of the synthesized cDNA and adjustment of the concentrations to 50 ng/μl. Further quantification of each cDNA, after final dilution, is carried out before the PCR reaction.
The PCR (polymerase chain reactions) reactions were carried out by quantitative PCR with the “Light Cycler” system (Roche Molecular Systems Inc.) and according to the procedures recommended by the supplier.
The incorporation of fluorescence into the amplified DNA is carried out continuously during the PCR cycles. This system makes it possible to obtain curves of measurement of the fluorescence as a function of the PCR cycles and to thus evaluate a value of relative expression for each marker.
The number of cycles is determined from the “exit” points of the fluorescence curves. For the same marker analysed, the later the sample exits (high cycle number), the lower the initial number of mRNA copies.
The RE (relative expression) value is expressed in arbitrary units according to the following formula: (1/2^number of cycles)×10^6
Results: Effects of the various treatments on the relative expression of the Aquaporin adipose (AQPap) messenger. Results with respect to the amount of actin messenger (reference gene).
RE=Relative Expression, expressed in arbitrary units (AU), n=2.

[2] = tested on: differentiated 3T3-L1 cells; assay: Fluorescence assay of glycerol released, Protocol 1 (without epinephrine); conditions: for Release of glycerol: summary
Experimental: (§1) The effects on the release of glycerol were tested in the presence of all the test products and using a fluorescence assay method. Glycerol was then assayed with regard to certain selected products using a calorimetric method and in the presence or the absence of HgCl2.
(§2) The cells used were mice preadipocytes of the 3T3-L1 line (40 000 cells/well).
(§3) The cells were cultured until confluency in a growth medium, with a change in medium every 2-3 days (24-well plates). • Growth medium: • DMEM (Life Technologies 21969035) L-glutamine, 2 mM (Life Technologies 25030024) • Penicillin 50 IU/ml streptomycin 50 μg/ml (Life Technologies 15070063) • Amphotericin B, 0.25 μg/ml (Sigma A2942) • Foetal calf serum, 10% v/v (Life Technologies 10106151).
(§4) At high confluency, the cells were transferred into a differentiation medium for 2×48 hours. • Differentiation medium: • DMEM (Life Technologies 21969035) • L-glutamine, 2 mM (Life Technologies 25030024) • Penicillin 50 IU/ml streptomycin 50 μg/ml (Life Technologies 15070063) • Foetal calf serum, 10% v/v (Life Technologies 10106151), • Isobutylmethylxanthine, 0.5 mM (IBMX, Sigma 17018) • Insulin, 5 μg/ml (Sigma 11882) • Dexamethasone, 1 μM (Sigma D1756)
After differentiation, the cells were transferred into DMEM medium+insulin (5 μg/ml final) for 72 hours and then into growth medium (DMEM/10% serum).
The differentiated cells were placed in test medium (MEM 100% (v/v), bicarbonate 1.87 mg/ml, glutamine 2 mM, delipidated bovine serum albumin 0.5% (w/v), penicillin/streptomycin 25 IU/ml/25 μg/ml) and were then treated with the test products or the references. After incubating at 37° C. for 1 h and 5% CO2, the culture supernatants were removed in order to assay the glycerol released.
The glycerol released into the culture medium was with a determined content of directly by measuring the fluorescence of the NADH produced in the following reaction sequence (according to Wieland). [drawing 1] Autofluorescence and quenching (absorption of the fluorescence) controls were carried out in order to determine possible interference of the products in this assay.

[3] = tested on: differentiated 3T3-L1 cells; assay: Colorimetric assay of glycerol released, Protocol 1; conditions: Protocol 1, 40 μM
Experimental: as §1, §2, §3, §4
After differentiation, the cells were transferred into DMEM medium+insulin (5 μg/ml final) for 72 hours and then into growth medium (DMEM/10% serum). […]

[4] = tested on: differentiated 3T3-L1 cells; assay: Fluorescence assay of glycerol released, HgCl2 protocol (Protocol 3); conditions: 10 mM
Experimental: The majority of mammalian aquaporins are inhibited by mercury and its salts, whereas chemical inhibitors of diffusion are unknown (P. Agre et al., J. of Physiology, 2002, 542.1). The cells used were mice preadipocytes of the 3T3-L1 line (40 000 cells/well). The cells were cultured until confluency in a growth medium, with a change in medium every 2-3 days (24-well plates). • Growth medium: • DMEM (Life Technologies 21969035) L-glutamine, 2 mM (Life Technologies 25030024) • Penicillin 50 IU/ml streptomycin 50 μg/ml (Life Technologies 15070063) • Amphotericin B, 0.25 μg/ml (Sigma A2942) • Foetal calf serum, 10% v/v (Life Technologies 10106151). […] After differentiation, the cells were transferred into DMEM medium+insulin (5 μg/ml final) for 72 hours and then into growth medium (DMEM/10% serum). […] The differentiated cells were placed in test medium for 24 h. The cells were subsequently placed in PBS buffer comprising or not comprising HgCl2 (30 μM final) for 5 minutes at 37° C. After treatment with HgCl2, the cells were washed twice in PBS and then placed in test medium comprising or not comprising the test products. The culture supernatants were subsequently removed in order to assay the glycerol released.

[5] = Protocol 1 (Caophenol table), 40 μM

Question: `CCCCCCCCCCC#CCSCC(=O)O` [(Tridec-2-ynylthio)acetic acid] was tested. Which “RE*AQP7” value ([1]; 0.00032 mg/ml) did it give?
Answer: The value was 0.912 AU.

Question: And the “AQP7/Actin % Control” value ([1]; 0.00032 mg/ml)?
Answer: Its value is 130%.

Question: And the “RE*AQP7” value ([1]; 0.0016 mg/ml)?
Answer: Its value is 0.872 AU.

Question: What about the “AQP7/Actin % Control” value ([1]; 0.0016 mg/ml) of the same compound?
Answer: Its value is 105%.

Question: And the “RE*AQP7” value ([1]; 0.008 mg/ml)?
Answer: Its value is 0.032 AU.

Question: What about the “AQP7/Actin % Control” value ([1]; 0.008 mg/ml) of the same compound?
Answer: Its value is 174%.

Question: And the mRNA stimulation ([1]; 0.16-4.0 μg/ml)?
Answer: The mRNA stimulation was “Yes”.

Question: And the Release of glycerol ([2]; 0.16-4.0 μg/ml)?
Answer: Its Release of glycerol is “No”.

Question: `CNC[C@H](O)c1ccc(O)c(O)c1` [Epinephrine] was tested. Which “% Control” value [2, 5] did it give?
Answer: The value was 327%.

Question: And the “% theory, taking into account the quenching control” value [2, 5]?
Answer: The value was 327%.

Question: What about the Glycerol [2, 5] of the same compound?
Answer: Its Glycerol is 101.85 µM.

Question: And the “% Control” value ([2]; Protocol 1, 40 μM, 1 h)?
Answer: Its value is 352%.

Question: What about the Glycerol ([2]; Protocol 1, 40 μM, 1 h) of the same compound?
Answer: The Glycerol was 117.57 µM.

Question: And the Glycerol ([2]; differentiated preadipocytes, epinephrine 40 μM)?
Answer: Its Glycerol is 149.5 µM.

Question: What about the Δ% ([2]; differentiated preadipocytes, epinephrine 40 μM, unstimulated differentiated = 100) of the same compound?
Answer: The Δ% was 383%.

Question: And the “% Control” value [3]?
Answer: The value was 795%.

Question: What about the Glycerol [3] of the same compound?
Answer: Its Glycerol is 449.74 µM.

Question: Which results are given for `CCCCCCCCSCC#CCSCC(=O)O` [{[4-(Octylthio)but-2-ynyl]thio}acetic acid]?
Answer: RE*AQP7 ([1]; 0.00016 mg/ml): 0.023 AU; AQP7/Actin % Control ([1]; 0.00016 mg/ml): 128%; RE*AQP7 ([1]; 0.0008 mg/ml): 0.022 AU; AQP7/Actin % Control ([1]; 0.0008 mg/ml): 153%; RE*AQP7 ([1]; 0.004 mg/ml): 0.020 AU; AQP7/Actin % Control ([1]; 0.004 mg/ml): 167%; mRNA stimulation ([1]; 0.32-8.0 μg/ml): Yes; Release of glycerol ([2]; 0.32-8.0 μg/ml): No

Question: How did the “% theory, taking into account the quenching control” value [4] turn out when `OCCS` [β-Mercaptol] was run?
Answer: The value was 155%.

Question: What about the Glycerol [4] of the same compound?
Answer: The Glycerol was 135.74 µM.

Question: And the “% Control” value ([4]; HgCl2 control = 100)?
Answer: Its value is 155%.

Question: Aescin was tested. Which “RE*AQP7” value ([1]; 0.000128 mg/ml) did it give?
Answer: The value was 0.034 AU.

Question: What about the “AQP7/Actin % Control” value ([1]; 0.000128 mg/ml) of the same compound?
Answer: The value was 134%.

Question: What about the “RE*AQP7” value ([1]; 0.00064 mg/ml) of the same compound?
Answer: Its value is 0.039 AU.

Question: And the “AQP7/Actin % Control” value ([1]; 0.00064 mg/ml)?
Answer: The value was 168%.

Question: What about the “RE*AQP7” value ([1]; 0.0032 mg/ml) of the same compound?
Answer: The value was 0.043 AU.

Question: What about the “AQP7/Actin % Control” value ([1]; 0.0032 mg/ml) of the same compound?
Answer: Its value is 164%.

Question: And the mRNA stimulation ([1]; 0.128-3.2 μg/ml)?
Answer: The mRNA stimulation was “Yes”.
